Assays:
[1] = test system: experimental malignancies; details: in vivo; cited from earlier work
[2] = test system: GLS (Gardner lymphosarcoma); test: Transplanted Gardner lymphosarcoma (GLS) tumor in mice; format: in vivo; details: for inhibitory activity orally / oral activity: orally
Experimental: (§1) The following table--Table 1--gives the results of several experiments in which mice bearing transplanted tumors were treated successfully with a compound of this invention. In the table, column 1 gives the name of the compound; column 2, the transplanted tumor; column 3, the dose level or dose level range and the number of days the dosage was administered; column 4, the route of administration, and column 5, the percent inhibition of tumor growth or percent prolongation of survival time, e.g., B16 and P388. (ROS is an abbreviation for Ridgeway osteogenic sarcoma; GLS for Gardner lymphosarcoma; P1534(J) and P388 are leukemias; CA 755 is an adenocarcinoma; and B16 is a melamoma).

transplanted tumors [3] = details: animals; cited from earlier work
B16 = test: Transplanted B16 melanoma in mice, prolongation of survival time; format: in vivo; details: IP
Experimental: as §1

[4] = test system: ROS (Ridgeway osteogenic sarcoma); test: Transplanted Ridgeway osteogenic sarcoma (ROS) in mice; format: in vivo; details: for inhibitory activity orally / oral activity: orally
Experimental: as §1

CA755 = test: Transplanted CA755 adenocarcinoma in mice; format: in vivo; details: for inhibitory activity orally / oral activity: orally
Experimental: as §1

P1534(J) = test: Transplanted P1534(J) leukemia in mice; format: in vivo
Experimental: as §1

[5] = Toxicity at higher oral dose levels in experimental animals; format: in vivo; details: orally, above 2 (VLB) and 2-4.5 (vincristine) mg./kg.
transplanted tumors [6] = test: Activity against transplanted tumors in mice in vivo (general); details: for dose level at which comparable tumor inhibition or prolongation of life is shown: parenterally, intraperitoneal route
Experimental: as §1

leukemias = details: human, in vivo; cited from earlier work
[7] = humans; cited from earlier work

CCC1(O)CN2CCc3c([nH]c4ccccc34)C(C(=O)OC)(c3cc4c(cc3OC)N(C)C3C(O)(C(=O)OC)CC5(CC)C=CCN6CCC43C65)CC(C2)C1O (stereo not drawn) [4-desacetoxy-3'-hydroxyvinblastine]
activity in the treatment of experimental malignancies in animals [1]: active

CCC1(O)CC2CN(CCc3c([nH]c4ccccc34)C(C(=O)OC)(c3cc4c(cc3OC)N(C)C3C(O)(C(=O)OC)CC5(CC)C=CCN6CCC43C65)C2)C1 (stereo not drawn) [4-desacetoxyvinblastine]
activity in the treatment of experimental malignancies in animals [1]: active

CCC1(O)CC2CN(CCc3c([nH]c4ccccc34)C(C(=O)OC)(c3cc4c(cc3OC)N(C)C3C5(OC(=O)N(C)C5=O)C(OC(=O)NC)C5(CC)C=CCN6CCC43C65)C2)C1 (stereo not drawn) [4-desacetyl VLB 3"-methyl-3-spiro-5"-oxazolidine-2", 4"-dione-4-(N-methyl)carbamate]
Percent Inhibition of tumor growth ([2]; 0.1-2.5 mg./kg. × 7-9 days, IP): 40-100%

CCC1(O)CC2CN(CCc3c([nH]c4ccccc34)C(C(=O)OC)(c3cc4c(cc3OC)N(C)C3C5(OC(=O)N(C)C5=O)C(O)C5(CC)C=CCN6CCC43C65)C2)C1 (stereo not drawn) [4-desacetyl VLB 3"-methyl-3-spiro-5"-oxazolidone-2",4"-dione]
Percent Inhibition of tumor growth ([2]; 2.5 mg./kg. × 7 days, IP): 27%

CCC1(O)CC2CN(CCc3c([nH]c4ccccc34)C(C(=O)OC)(c3cc4c(cc3OC)N(C)C3C(O)(C(=O)NCCS)C(O)C5(CC)C=CCN6CCC43C65)C2)C1 (stereo not drawn) [C-3 N-(β-mercaptoethyl)carboxamide of 4-desacetyl VLB]
anti-tumor activity (transplanted tumors [3]): highly effective anti-tumor agent in mice

CCC1(O)CC2CN(CCc3c([nH]c4ccccc34)C(C(=O)OC)(c3cc4c(cc3OC)N(C)C3C5(OC(=O)N(CCCl)C5=O)C(OC(C)=O)C5(CC)C=CCN6CCC43C65)C2)C1 (stereo not drawn) [VLB 3"-(β-chloroethyl)-3-spiro-5"-oxazolidine-2",4"-dione]
Percent Prolongation of Survival Time (B16; 0.4-0.6 mg./kg. × 10 days): 25-178%
indefinite survivors (survived for 60 days till end of trial) (B16; 0.4-0.6 mg./kg. × 10 days): 5
Percent Inhibition of tumor growth ([2]; 0.65 mg./kg. × 10 days, IP): 47%
Percent Inhibition of tumor growth ([2]; 0.5-0.6 mg./kg. × 9-10 days, IP): 50-74%
Percent Inhibition of tumor growth ([2]; 3-4 mg./kg. × 9 days, PO): 92-100%
inhibitory activity orally ([2]; 3-6 mg./kg.): 100%
inhibitory activity orally ([4]; 3-6 mg./kg.): 100%
Percent Inhibition of tumor growth (CA755; 0.75-1.0 mg./kg. × 10 days, IP): 53%
Percent Inhibition of tumor growth (CA755; 3-5 mg./kg. × 9-10 days, PO): 59-92%
inhibitory activity orally (CA755; 3-6 mg./kg.): 100%
Percent Inhibition or Prolongation of Survival Time (P1534(J); 3.5 mg./kg. × 8 days, PO): 100%
Percent Inhibition or Prolongation of Survival Time (P1534(J); 0.4-0.6 mg./kg. × 10 days, IP): 61-86%

C=CCN1C(=O)OC2(C1=O)C(OC(C)=O)C1(CC)C=CCN3CCC4(c5cc(C6(C(=O)OC)CC7CN(CCc8c6[nH]c6ccccc86)CC(O)(CC)C7)c(OC)cc5N(C)C24)C31 (stereo not drawn) [VLB 3"-allyl-3-spiro-5"-oxazolidine-2",4"-dione]
Percent Inhibition of tumor growth ([2]; 2.5 mg./kg. × 7 days, IP): 35%

CCC1(O)CC2CN(CCc3c([nH]c4ccccc34)C(C(=O)OC)(c3cc4c(cc3OC)N(C)C3C5(OC(=O)N(C)C5=O)C(OC(C)=O)C5(CC)C=CCN6CCC43C65)C2)C1 (stereo not drawn) [VLB 3"-methyl-3-spiro-5"-oxazolidine-2",4"-dione]
Percent Prolongation of Survival Time (B16; 4.5 mg./kg. × 10 days): 49-91%
indefinite survivors (survived for 60 days till end of trial) (B16; 0.5-0.6 mg./kg. × 10 days): 3
Percent Inhibition of tumor growth ([2]; 0.6 mg./kg. × 7 days, IP): 100%
Percent Inhibition of tumor growth ([2]; 1.25 mg./kg. × 9 days, IP): 100%
Percent Inhibition of tumor growth ([2]; 3-4 mg./kg. × 10 days, PO): 100%
Percent Inhibition of tumor growth ([2]; 3-5 mg./kg. × 10 days, PO): 37-56%
inhibitory activity orally ([2]; 6-7 mg./kg.): 100%
Percent Inhibition of tumor growth ([4]; 5-7 mg./kg. × 10 days, PO): 38-59%
inhibitory activity orally ([4]; 6-7 mg./kg.): 100%
Percent Inhibition of tumor growth (CA755; 0.5-1.0 mg./kg. × 10 days, IP): 43-100%
inhibitory activity orally (CA755; 6-7 mg./kg.): 100%
Percent Inhibition or Prolongation of Survival Time (P1534(J); 3-4 mg./kg. × 8 days, PO): 100%
Percent Inhibition or Prolongation of Survival Time (P1534(J); .5-.6 mg./kg. × 10 days, IP): 100%

CC[C@]1(O)C[C@@H]2CN(CCc3c([nH]c4ccccc34)[C@@](C(=O)OC)(c3cc4c(cc3OC)N(C)[C@H]3[C@@](O)(C(=O)OC)[C@H](OC(C)=O)[C@]5(CC)C=CCN6CC[C@]43[C@@H]65)C2)C1 [VLB, vincaleukoblastine]
oral activity ([2]; 2 mg./kg.): only marginally active, if at all
oral activity ([4]; 2 mg./kg.): only marginally active, if at all
oral activity (CA755; 2 mg./kg.): only marginally active, if at all
toxicity at higher levels [5]: usually are toxic at higher levels
activity in the treatment of experimental malignancies in animals [1]: active
activity by the oral route (transplanted tumors [6]): do not show this degree of oral activity
dose level at which comparable tumor inhibition or prolongation of life is shown (transplanted tumors [6]): 0.4 to 0.45 mg/kg

CCC1CC2CN(CCc3c([nH]c4ccccc34)C(C(=O)OC)(c3cc4c(cc3OC)N(C)C3C(O)(C(=O)OC)C(OC(C)=O)C5(CC)C=CCN6CCC43C65)C2)C1 (stereo not drawn) [deoxy VLB "A"]
activity in the treatment of experimental malignancies in animals [1]: active

CCC1(O)CN2CCc3c([nH]c4ccccc34)C(C(=O)OC)(c3cc4c(cc3OC)N(C)C3C(O)(C(=O)OC)C(OC(C)=O)C5(CC)C=CCN6CCC43C65)CC(O)(C2)C1 (stereo not drawn) [leurocolombine]
activity in the treatment of experimental malignancies in animals [1]: active

CCC12CN3CCc4c([nH]c5ccccc45)C(C(=O)OC)(c4cc5c(cc4OC)N(C=O)C4C(O)(C(=O)OC)C(OC(C)=O)C6(CC)C=CCN7CCC54C76)CC(C3)C1O2 (stereo not drawn) [leuroformine]
activity in the treatment of experimental malignancies in animals [1]: active

CCC1(O)CC2CN(CCc3c([nH]c4ccccc34)C(C(=O)OC)(c3cc4c(cc3OC)N(C)C3C(O)(C(=O)OC)C(OC(C)=O)C5(CC)C=CCN6CCC43C65)C2)C1 (stereo not drawn) [leurosidine]
activity in the treatment of experimental malignancies in animals [1]: active

CC[C@]12CN3CCc4c([nH]c5ccccc45)[C@@](C(=O)OC)(c4cc5c(cc4OC)N(C)[C@H]4[C@@](O)(C(=O)OC)[C@H](OC(C)=O)[C@]6(CC)C=CCN7CC[C@]54[C@@H]76)C[C@H](C3)[C@H]1O2 [leurosine]
activity in the treatment of experimental malignancies in animals [1]: active

CCC1(O)CN2CCc3c([nH]c4ccccc34)C(C(=O)OC)(c3cc4c(cc3OC)N(C)C3C(O)(C(=O)OC)C(OC(C)=O)C5(CC)C=CCN6CCC43C65)CC(C2)C1O (stereo not drawn) [vincadioline]
activity in the treatment of experimental malignancies in animals [1]: active

CCC1(O)CC2CN(CCc3c([nH]c4ccccc34)C(C(=O)OC)(c3cc4c(cc3OC)N(C=O)C3C5(OC(=O)N(C)C5=O)C(OC(C)=O)C5(CC)C=CCN6CCC43C65)C2)C1 (stereo not drawn) [vincristine 3"-methyl-3-spiro-5"-oxazolidone-2",4"-dione]
Percent Inhibition of tumor growth ([2]; 1.0 mg./kg. × 7 days, IP): 61%

CC[C@]1(O)C[C@H]2CN(CCc3c([nH]c4ccccc34)[C@@](C(=O)OC)(c3cc4c(cc3OC)N(C=O)[C@H]3[C@@](O)(C(=O)OC)[C@H](OC(C)=O)[C@]5(CC)C=CCN6CC[C@]43[C@@H]65)C2)C1 [vincristine, leurocristine]
oral activity ([2]; 2-4.5 mg./kg.): only marginally active, if at all
oral activity ([4]; 2-4.5 mg./kg.): only marginally active, if at all
oral activity (CA755; 2-4.5 mg./kg.): only marginally active, if at all
toxicity at higher levels [5]: usually are toxic at higher levels
activity in the treatment of experimental malignancies in animals [1]: active
activity by the oral route (transplanted tumors [6]): do not show this degree of oral activity
dose level at which comparable tumor inhibition or prolongation of life is shown (transplanted tumors [6]): 0.2 to 0.25 mg/kg

CC[C@]1(O)C[C@@H]2CN(CCc3c([nH]c4ccccc34)[C@@](C(=O)OC)(c3cc4c(cc3OC)N(C)[C@H]3[C@@](O)(C(N)=O)[C@H](O)[C@]5(CC)C=CCN6CC[C@]43[C@@H]65)C2)C1 [vindesine, 4-desacetyl VLB C-3 carboxamide]
activity in leukemias in humans (leukemias): active in certain leukemias
neurotoxicity compared with vincristine [7]: less neurotoxicity than does vincristine

Source: patent USRE30561E, “Vinca alkaloid intermediates” (Eli Lilly and Company, priority 1979, dated 1981)
